Converted amounts (≈) assume the structure as drawn. Like-named read-outs stand apart in the source and are kept apart here.
Columns and labels:
[1] = tested on: COLO 205; experiment: in vitro cytotoxicity by the MTT assay, COLO 205; assay type: cell-based, human
Protocol: (§1) Compounds 1-9 were evaluated for in vitro cytotoxicity by the MTT assay, against four types of human tumor cell lines, including COLO 205, HA22T, SKBR3, and MOLT-4.
(§2) COLO 205 was grown as a monolayer in RPMI 1640 (Gibco) with 10% fetal serum (FBS, Hyclon). HA22T/VGH was grown as a monolayer in DMEM/F12 medium (Gibco) supplemented with 10% FBS and […] nonessential amino acid (Gibco, BRL). SKBr3 was grown as a monolayer in DMEM/F12 medium (Gibco) with 10% FCS and 1% penicillin/streptomycin (Gibco, BRL). MOLT-4 was grown as a suspension cell line in RPMI 1640 supplemented with 10% FCS and 1% penicillin/streptomycin (Gibco, BRL). Exponentially growing cell cultures were maintained in a humidified incubator (NAPCO, Model 5410) with an atmosphere of 5% CO2 -95% air at 37° C.
(§3) In principle, the assay is dependent on the cellular reduction of MTT (Sigma Chemical Co.) by the mitochondrial dehydrogenase of viable cells to a dark blue formazan product. The viable cell number is directly proportional to the production of formazan, which can be measured spectrophotometrically following solubilization.
(§4) Single cell suspensions were obtained by mechanical disaggregation of the floating cell line (MOLT-4) and by trypsinization of the monolayer cultures (COLO 205, HA22T/VGH, SKBr3) and counted by trypan blue exclusion. The cell suspensions (180 μl) were added into 96-well microtiter plates (Nunc 67008) using a multichannel pipette, and the incubation was allowed for 24 h.
(§5) Each test compound was dissolved in a 10% DMSO (Sigma, D-8779) and 90% DPBS solution. 20 μl of this solution was dispensed to each microtiter plate well, and diluted to give final concentrations ranging from 100 μg/ml to 0.01 μg/ml by 10-fold dilutions. The cells were then incubated in the presence of the drug (the test compound) for a further 72 h. At the end of this time, 20 μl of a MTT solution (5 mg/ml) was added to each well and the incubation was allowed a further 4 h. After this time, the culture plates containing suspension lines or any detached cells were centrifuged at a low speed of 1000 rpm for 5 min. 170 μl of the culture medium supernatant was removed from each well and replaced by 200 μl of DMSO. After the solubilization of formazans, the optical density was then read by an automated spectrophotometric plate reader (ELISA, Molecular Device Emax) at a wavelength of 545-690 nm. Readings were transferred to a microcomputer and final reports were generated using especially developed software.

[2] = tested on: HA22T; experiment: in vitro cytotoxicity by the MTT assay, HA22T; assay type: cell-based, human; settings: 72 h
Protocol: as §1, §2, §3, §4, §5

[3] = tested on: SKBR3; experiment: in vitro cytotoxicity by the MTT assay, SKBR3; assay type: cell-based, human
Protocol: as §1, §2, §3, §4, §5

[4] = tested on: MOLT-4; experiment: in vitro cytotoxicity by the MTT assay, MOLT-4; assay type: cell-based, human
Protocol: as §1, §2, §3, §4, §5

[5] = tested on: leukemia cells; settings: versus other solid tumor cells; cited from earlier work
[6] = Homo sapiens, COLO 205, MTT, 72 h, read-out: IC50
[7] = Homo sapiens, MTT, read-out: IC50
[8] = Homo sapiens, SK-BR-3, SKBR3, MTT, 72 h, read-out: IC50
[9] = Homo sapiens, MOLT-4, MTT, 72 h, read-out: IC50

| Compound | IC50 ([1]; COLO 205, MTT, 72 h) | IC50 ([2]; MTT) | IC50 ([3]; SKBR3, MTT, 72 h) | IC50 ([4]; MOLT-4, MTT, 72 h) | IC50 [1, 6] | IC50 [2, 7] | IC50 [3, 8] | IC50 [4, 9] | also measured |
| --- | --- | --- | --- | --- | --- | --- | --- | --- | --- |
| 2-Bromomethyl-3-[1-(2(or 6)-bromo-3,4-methylenedioxy)-phenyl-1'-(2-bromo-3,4,5-trimethoxy)phenyl]methyl γ-butyrolactone [Compound 9] | 5.6 µg/mL | 5.7 µg/mL | 4.5 µg/mL | 5.8 µg/mL | – | – | – | – | – |
| 2-Methylene-3-[1-(2(or 6)-bromo-3,4-methylenedioxy)-phenyl-1'-(2-bromo-3,4,5-trimethoxy)phenyl]methyl γ-butyrolactone [Compound 5] | 6.8 µg/mL | 5.9 µg/mL | 5.3 µg/mL | 3.9 µg/mL | – | – | – | – | – |
| COc1cc(C(c2cc(OC)c(OC)c(OC)c2Br)[C@H]2COC(=O)[C@@H]2CBr)c(Br)c(OC)c1OC (relative stereo) [Compound 2, 2-Bromomethyl-3-[bis(2-bromo-3,4,5-trimethoxy)phenyl]-methyl γ-butyrolactone] | – | – | – | – | 5 µg/mL (≈ 7.32 µM) | 6.6 µg/mL (≈ 9.66 µM) | 3.7 µg/mL (≈ 5.42 µM) | 3.1 µg/mL (≈ 4.54 µM) | – |
| COc1cc(C(c2cc(OC)c(OC)c(OC)c2Br)[C@@H]2COC(=O)[C@@H]2CBr)c(Br)c(OC)c1OC (relative stereo) [Compound 4, 2-Bromomethyl-3-[bis(2-bromo-3,4,5-trimethoxy)phenyl]-methyl γ-butyrolactone] | – | – | – | – | 4.2 µg/mL (≈ 6.15 µM) | 6.4 µg/mL (≈ 9.37 µM) | 4.9 µg/mL (≈ 7.17 µM) | 4.9 µg/mL (≈ 7.17 µM) | – |
| C=C1C(=O)OCC1C(c1cc(OC)c(OC)c(OC)c1)c1cc(OC)c(OC)c(OC)c1 (stereo not drawn) [Compound 1, 2-Methylene-3-[bis(3,4,5-trimethoxy)phenyl]methyl γ-butyrolactone] | – | – | – | – | 2.3 µg/mL (≈ 5.17 µM) | 7.1 µg/mL (≈ 16 µM) | 4 µg/mL (≈ 9 µM) | 2.8 µg/mL (≈ 6.3 µM) | – |
| C=C1C(=O)OCC1C(c1ccc2c(c1)OCO2)c1cc(OC)c(OC)c(OC)c1 (stereo not drawn) [Compound 3, 2-Methylene-3-[1-(3,4-methylenedioxy)phenyl-1'-(3,4,5-trimethoxy)phenyl]methyl γ-butyrolactone] | – | – | – | – | 5.8 µg/mL (≈ 14.6 µM) | 6.4 µg/mL (≈ 16.1 µM) | 4.6 µg/mL (≈ 11.5 µM) | 4.3 µg/mL (≈ 10.8 µM) | – |
| C=C1C(=O)OCC1C(c1cc(OC)c(OC)c(OC)c1Br)c1cc(OC)c(OC)c(OC)c1Br (stereo not drawn) [Compound 6, 2-Methylene-3-[bis(2-bromo-3,4,5-trimethoxy)phenyl]methyl γ-butyrolactone] | – | – | – | – | 6.7 µg/mL (≈ 11.1 µM) | 5.9 µg/mL (≈ 9.8 µM) | 3.7 µg/mL (≈ 6.14 µM) | 4.3 µg/mL (≈ 7.14 µM) | – |
| C=C1C(=O)OCC1C(c1cc(OC)c(OC)c(OC)c1)c1cc(OC)c2c(c1)OCO2 (stereo not drawn) [Compound 7, 2-Methylene-3-[1-(3,4-methylenedioxy-5-methoxy)phenyl-1'-(3,4,5-trimethoxy)phenyl]methyl γ-butyrolactone] | – | – | – | – | 4.4 µg/mL (≈ 10.3 µM) | 7.1 µg/mL (≈ 16.6 µM) | 4.6 µg/mL (≈ 10.7 µM) | 3 µg/mL (≈ 7 µM) | – |
| COc1cc(C(c2cc(OC)c3c(c2Br)OCO3)C2COC(=O)C2CBr)c(Br)c(OC)c1OC (stereo not drawn) [Compound 8, 2-Bromomethyl-3-[1-(2(or 6)-bromo-3,4-methylenedioxy-5-methoxy)phenyl-1'-(2-bromo-3,4,5-trimethoxy)phenyl]methyl γ-butyrolactone] | 6.1 µg/mL (≈ 9.14 µM) | 5.8 µg/mL (≈ 8.69 µM) | 4.3 µg/mL (≈ 6.45 µM) | 1.5 µg/mL (≈ 2.25 µM) | – | – | – | – | – |
| COc1cccc2c1C(=O)c1c(O)c3c(c(O)c1C2=O)C[C@@](O)(C(=O)CO)C[C@@H]3O[C@H]1C[C@H](N)[C@H](O)[C@H](C)O1 [DOXORUBICIN, reference compound] | – | – | – | – | – | – | – | – | IC50 ([1]; Homo sapiens, COLO 205, 72 h): 0.2 µg/mL (≈ 0.368 µM); IC50 ([2]; Homo sapiens): 0.2 µg/mL (≈ 0.368 µM); IC50 ([3]; Homo sapiens, SK-BR-3, 72 h): 0.1 µg/mL (≈ 0.184 µM); IC50 ([4]; Homo sapiens, MOLT-4, 72 h): 0.01 µg/mL (≈ 0.0184 µM); hypersensitivity to MOLT-4 leukemia cell line ([4]; as compared to other solid tumor cells): hypersensitivity towards leukemia cells as compared to other solid tumor cells; hypersensitivity towards leukemia cells [5]: hypersensitivity towards leukemia cells versus other solid tumor cells |
